Results as given in publication PMC9127364, “2-Aminoacrylate stress damages diverse PLP-dependent enzymes in vivo” (The Journal of Biological Chemistry, 2022).

What was measured:
IlvE [1] = target: T1, IlvE (Salmonella enterica, UniProt P0A1A5); test: base release of bound cofactor, HPLC at […] nm; format: binding; details: protein from wild-type (ridA+) host; 30 mM KOH release; storage buffer with 10 μM PLP
T1 construct: pET28b plasmid, purified on HisTrap (His-tagged); expressed in S. enterica DM13509 (wild type) and DM17050 (ridA)
T1 sequence (P0A1A5 2-309): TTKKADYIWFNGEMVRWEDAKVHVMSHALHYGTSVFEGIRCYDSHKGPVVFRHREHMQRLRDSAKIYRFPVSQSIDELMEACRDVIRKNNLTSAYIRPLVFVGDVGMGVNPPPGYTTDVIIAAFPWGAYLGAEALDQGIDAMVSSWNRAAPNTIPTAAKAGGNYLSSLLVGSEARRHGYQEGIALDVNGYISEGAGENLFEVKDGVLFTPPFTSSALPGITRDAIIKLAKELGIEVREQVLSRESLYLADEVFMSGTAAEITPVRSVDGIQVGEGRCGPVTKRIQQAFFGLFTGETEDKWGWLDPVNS

IlvE [2] = target: T1, IlvE; test: pyruvate-PLP adduct released by base from the purified protein, HPLC; format: cell-based; details: covalent; 2AA formed in vivo, ridA host, 5 mM L-serine; attacks active-site PLP
Alr [3] = target: T2, Alr (Salmonella enterica, UniProt P0A1A3); test: as above; format: cell-based; details: covalent; 2AA formed in vivo, ridA host, 5 mM L-serine; attacks active-site PLP
T2 construct: pET20b derivative pDM1602, N-terminal His6 tag; expressed in and purified from S. enterica DM13509 (wild type) and DM17050 (ridA)
T2 sequence (P0A1A3 whole entry): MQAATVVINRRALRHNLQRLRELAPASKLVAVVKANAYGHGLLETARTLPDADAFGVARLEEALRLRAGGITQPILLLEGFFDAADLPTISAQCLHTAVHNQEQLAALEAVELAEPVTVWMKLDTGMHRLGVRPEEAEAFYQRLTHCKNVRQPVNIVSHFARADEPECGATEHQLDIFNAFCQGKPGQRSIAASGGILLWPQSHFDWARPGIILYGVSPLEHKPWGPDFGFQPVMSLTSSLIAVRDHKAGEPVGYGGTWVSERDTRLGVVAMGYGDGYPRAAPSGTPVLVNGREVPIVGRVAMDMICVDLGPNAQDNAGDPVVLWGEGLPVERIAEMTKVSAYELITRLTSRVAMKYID
Text: pyruvate-PLP adduct released by base from the purified protein, HPLC on Alr

IlvA [4] = target: T3, IlvA (Salmonella enterica, UniProt P20506); test: as above; format: cell-based; details: covalent; 2AA formed in vivo, ridA host, 5 mM L-serine; attacks active-site PLP
T3 construct: pET20b derivative pDM1578, N-terminal His6 tag; expressed in S. enterica DM13509 (wild type) and DM17050 (ridA)
T3 sequence (P20506 1-514): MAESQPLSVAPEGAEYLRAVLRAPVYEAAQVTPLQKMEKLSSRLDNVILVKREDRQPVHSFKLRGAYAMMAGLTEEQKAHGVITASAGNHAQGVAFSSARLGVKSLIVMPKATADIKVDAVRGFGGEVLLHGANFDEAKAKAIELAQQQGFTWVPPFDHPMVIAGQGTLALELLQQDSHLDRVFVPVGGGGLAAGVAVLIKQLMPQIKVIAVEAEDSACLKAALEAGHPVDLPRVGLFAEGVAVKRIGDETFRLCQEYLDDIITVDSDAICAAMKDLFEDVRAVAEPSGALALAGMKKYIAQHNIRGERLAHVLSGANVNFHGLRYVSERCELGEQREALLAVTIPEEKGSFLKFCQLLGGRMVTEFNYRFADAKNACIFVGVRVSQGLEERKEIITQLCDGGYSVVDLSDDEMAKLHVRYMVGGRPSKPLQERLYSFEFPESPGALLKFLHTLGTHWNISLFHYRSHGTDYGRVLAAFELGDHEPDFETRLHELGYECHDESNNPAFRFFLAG
Text: pyruvate-PLP adduct released by base from the purified protein, HPLC on IlvA

IlvA [5] = target: T3, IlvA; test: base release of bound cofactor, HPLC at […] nm; format: binding; details: protein from wild-type (ridA+) host; 30 mM KOH release; storage buffer with 10 μM PLP
Alr [6] = target: T2, Alr; test: base release of bound cofactor, HPLC at […] nm; format: binding; details: protein from wild-type (ridA+) host; 30 mM KOH release; storage buffer with 10 μM PLP
IlvE [7] = target: T1, IlvE; test: base release of bound cofactor, HPLC at […] nm; format: binding; details: protein from wild-type (ridA+) host; 30 mM KOH release; storage buffer with 10 μM PLP; remark: listed apart in the source
Alr [8] = target: T2, Alr; test: incubation with purified protein, base release of cofactors, HPLC; format: binding; details: covalent; suicide inhibitor, forms pyruvate-PLP in the active site; protein from ridA+ host

## Cc1ncc(COP(=O)(O)O)c(CN)c1O [PMP]
IlvE [1]
  PMP: 0.33 ± <0.01

## C=C(N)C(=O)O [2AA]
IlvE [2]
  Pyruvate-PLP: 0.72 ± <0.01
Alr [3]
  Pyruvate-PLP: 0.11 ± <0.01
IlvA [4]
  Pyruvate-PLP: 0.03 ± <0.01

## Cc1ncc(COP(=O)(O)O)c(C=O)c1O [PLP]
IlvA [5]
  PLP: 1.25 ± 0.04 nmol/nmol protein
Alr [6]
  PLP: 0.87 ± <0.01
IlvE [7]
  PLP: 0.30 ± <0.01

## NC(CCl)C(=O)O (centres unmarked) [3CA]
Alr [8]
  incubation with purified protein, base release of cofactors, HPLC: Alr but not IlvA is sensitive to 3-chloroalanine (3CA).
